# Data from patent publication EP0554004A2, “Cephem compounds and antibacterial agents” (KATAYAMA SEIYAKUSYO CO. Ltd., priority 1992, dated 1993).
# What was measured:
# Format in all cases: cell-based
# [1] = system: Bacillus subtilis ATCC 6633; assay: MIC against standard strains (Test Example 1); conditions: ATCC6633, Muller-Hinton agar, 37°C overnight
# Method: (§1) By using each test strain cultured overnight at 37°C in a Muller-Hinton broth, there was prepared a bacterial solution with a bacterial cell population of 1 x 10^6 CFU/mi of the same bouillon. The bacterial solution was inoculated into the Muller-Hinton agar media each containing respectively one test agent and, after overnight incubation at 37°C, the minimum concentration that inhibited growth of the bacteria was determined and shown as MIC also in Table 1.
# (§2) Staphylococcus aureus 167 and Staphylococcus aureus 195 used in the test were MRSA. CTM (cefotiam) and FMOX (flomoxef) were used as control agents.
# [2] = system: Citrobacter freundii ATCC 8090; assay: MIC against standard strains (Test Example 1); conditions: ATCC8090, Muller-Hinton agar, 37°C overnight
# Method: as §1, §2
# [3] = system: Enterobacter cloacae ATCC 13407; assay: MIC against standard strains (Test Example 1); conditions: ATCC13407, Muller-Hinton agar, 37°C overnight
# Method: as §1, §2
# [4] = system: Escherichia coli CSH2 (RE45); assay: MIC against standard strains (Test Example 1)
# Method: as §1, §2
# [5] = system: Escherichia coli CSH2 (RK1); assay: MIC against standard strains (Test Example 1)
# Method: as §1, §2
# [6] = system: Escherichia coli NIHJ JC-2; assay: MIC against standard strains (Test Example 1); conditions: NIHJJC2, Muller-Hinton agar, 37°C overnight
# Method: as §1, §2
# [7] = system: Klebsiella pneumoniae IFO 3317; assay: MIC against standard strains (Test Example 1); conditions: IFO3317, Muller-Hinton agar, 37°C overnight
# Method: as §1, §2
# [8] = system: Klebsiella pneumoniae No. 42; assay: MIC against standard strains (Test Example 1); conditions: Muller-Hinton agar, 37°C overnight
# Method: as §1, §2
# [9] = system: Micrococcus luteus ATCC 9341; assay: MIC against standard strains (Test Example 1); conditions: ATCC9341, Muller-Hinton agar, 37°C overnight
# Method: as §1, §2
# [10] = system: Morganella morganii IFO 3848; assay: MIC against standard strains (Test Example 1); conditions: IFO3848, Muller-Hinton agar, 37°C overnight
# Method: as §1, §2
# [11] = system: Proteus mirabilis IFO 3849; assay: MIC against standard strains (Test Example 1); conditions: IFO3849, Muller-Hinton agar, 37°C overnight
# Method: as §1, §2
# Proteus vulgalis OX-19 = assay: MIC against standard strains (Test Example 1); conditions: Muller-Hinton agar, 37°C overnight
# Method: as §1, §2
# [12] = system: Pseudomonas aeruginosa NCTC 10490; assay: MIC against standard strains (Test Example 1); conditions: NCTC10490, Muller-Hinton agar, 37°C overnight
# Method: as §1, §2
# [13] = system: Psuedomonas aeruginosa IFO 3445; assay: MIC against standard strains (Test Example 1); conditions: Muller-Hinton agar, 37°C overnight
# Method: as §1, §2
# [14] = system: Serratia marcescens IAM 1184; assay: MIC against standard strains (Test Example 1); conditions: IAM1184, Muller-Hinton agar, 37°C overnight
# Method: as §1, §2
# [15] = system: Staphylococcus aureus 167; assay: MIC against standard strains (Test Example 1); conditions: Staphylococcus aureus 167 (MRSA); Muller-Hinton agar, 37°C overnight
# Method: as §1, §2
# [16] = system: Staphylococcus aureus 195; assay: MIC against standard strains (Test Example 1); conditions: Staphylococcus aureus 195 (MRSA); Muller-Hinton agar, 37°C overnight
# Method: as §1, §2
# [17] = system: Staphylococcus aureus 209P JC-1; assay: MIC against standard strains (Test Example 1); conditions: Muller-Hinton agar, 37°C overnight
# Method: as §1, §2
# [18] = system: Staphylococcus aureus Smith; assay: MIC against standard strains (Test Example 1); conditions: Muller-Hinton agar, 37°C overnight
# Method: as §1, §2
# [19] = system: Staphylococcus epidermidis IAM 1296; assay: MIC against standard strains (Test Example 1); conditions: IAM1296, Muller-Hinton agar, 37°C overnight
# Method: as §1, §2
# A. calcoaceticos T59 = assay: MIC against standard strains (Test Example 3); conditions: A. calcoaceticos T59 (Test Example 3); read-out: MIC
# Method: as §1
# (§3) The minimum growth inhibitory concentration was determined for each of the 21 standard strains shown in Table 3, according to the same method as used in Test Example 1.
# (§4) In the test, FMOX (flomoxef), CTM (cefotiam) and CEZ (cefazolin) were used as control agents.
# A. faecalis ATCC3750 = assay: MIC against standard strains (Test Example 3); conditions: Alcaligenes faecalis; A. faecalis ATCC3750 (Test Example 3); read-out: MIC
# Method: as §1, §3, §4
# B. subtilis ATCC6633 = assay: MIC against standard strains (Test Example 3); conditions: Bacillus subtilis; B. subtilis ATCC6633 (Test Example 3); read-out: MIC
# Method: as §1, §3, §4
# C. freundii ATCC8090 = assay: MIC against standard strains (Test Example 3); conditions: Citrobacter freundii; C. freundii ATCC8090 (Test Example 3); read-out: MIC
# Method: as §1, §3, §4
# E. cloacae ATCC13407 = assay: MIC against standard strains (Test Example 3); conditions: Enterobacter cloacae; E. cloacae ATCC13407 (Test Example 3); read-out: MIC
# Method: as §1, §3, §4
# E. coli CSH2 (RE45) = assay: MIC against standard strains (Test Example 3); conditions: Escherichia coli
# Method: as §1, §3, §4
# E. coli CSH2 (RK1) = assay: MIC against standard strains (Test Example 3); conditions: Escherichia coli
# Method: as §1, §3, §4
# E. coli NIHJ JC-2 = assay: MIC against standard strains (Test Example 3); conditions: Escherichia coli, NIHJJC2; E. coli NIHJ JC-2 (Test Example 3); read-out: MIC
# Method: as §1, §3, §4
# K. pneumoniae IFO3317 = assay: MIC against standard strains (Test Example 3); conditions: Klebsiella pneumoniae; K. pneumoniae IFO3317 (Test Example 3); read-out: MIC
# Method: as §1, §3, §4
# K. pneumoniae No. 42 = assay: MIC against standard strains (Test Example 3); conditions: Klebsiella pneumoniae; K. pneumoniae No. 42 (Test Example 3); read-out: MIC
# Method: as §1, §3, §4
# M. Morganii IFO3848 = assay: MIC against standard strains (Test Example 3); conditions: Morganella morganii; M. Morganii IFO3848 (Test Example 3); read-out: MIC
# Method: as §1, §3, §4
# M. luteus ATCC 9341 = assay: MIC against standard strains (Test Example 3); conditions: Micrococcus luteus, ATCC9341; M. luteus ATCC 9341 (Test Example 3); read-out: MIC
# Method: as §1, §3, §4
# P. aeruginosa NCTC10490 = assay: MIC against standard strains (Test Example 3); conditions: Pseudomonas aeruginosa; P. aeruginosa NCTC10490 (Test Example 3); read-out: MIC
# Method: as §1, §3, §4
# P. mirabilis IFO3849 = assay: MIC against standard strains (Test Example 3); conditions: Proteus mirabilis; P. mirabilis IFO3849 (Test Example 3); read-out: MIC
# Method: as §1, §3, §4
# P. vulugaris OX-19 = assay: MIC against standard strains (Test Example 3); conditions: P. vulugaris OX-19 (Test Example 3); read-out: MIC
# Method: as §1, §3, §4
# S. aureus 167 = assay: MIC against standard strains (Test Example 3); conditions: Staphylococcus aureus; S. aureus 167 (MRSA) (Test Example 3); read-out: MIC
# Method: as §1, §3, §4
# S. aureus 195 = assay: MIC against standard strains (Test Example 3); conditions: Staphylococcus aureus; S. aureus 195 (MRSA) (Test Example 3); read-out: MIC
# Method: as §1, §3, §4
# S. aureus 209p JC-1 = assay: MIC against standard strains (Test Example 3); conditions: Staphylococcus aureus; S. aureus 209p JC-1 (Test Example 3); read-out: MIC
# Method: as §1, §3, §4
# S. aureus Smith = assay: MIC against standard strains (Test Example 3); conditions: Staphylococcus aureus; S. aureus Smith (Test Example 3); read-out: MIC
# Method: as §1, §3, §4
# S. epidemidis IAM1296 = assay: MIC against standard strains (Test Example 3); conditions: S. epidemidis IAM1296 (Test Example 3); read-out: MIC
# Method: as §1, §3, §4
# S. marcescens IAM1184 = assay: MIC against standard strains (Test Example 3); conditions: Serratia marcescens; S. marcescens IAM1184 (Test Example 3); read-out: MIC
# Method: as §1, §3, §4
smiles,measurement,setting,value
"CN(C)CCn1nnnc1SCC1=C(C(=O)O)N2C(=O)[C@@H](NC(=O)Cc3csc(N)n3)[C@H]2SC1 [CTM, cefotiam, reference compound]",MIC,[1],0.2 µg/mL
same,MIC,[2],0.78 µg/mL
same,MIC,[3],50 µg/mL
same,MIC,[4],0.2 µg/mL
same,MIC,[5],0.2 µg/mL
same,MIC,[6],0.1 µg/mL
same,MIC,[7],0.1 µg/mL
same,MIC,[8],0.39 µg/mL
same,MIC,[9],0.39 µg/mL
same,MIC,[10],0.1 µg/mL
same,MIC,[11],0.39 µg/mL
same,MIC,Proteus vulgalis OX-19,0.39 µg/mL
same,MIC,[12],> 100 µg/mL
same,MIC,[13],> 100 µg/mL
same,MIC,[14],3.13 µg/mL
same,MIC,[15],> 100 µg/mL
same,MIC,[16],> 100 µg/mL
same,MIC,[17],0.2 µg/mL
same,MIC,[18],0.39 µg/mL
same,MIC,[19],0.2 µg/mL
same,MIC,A. calcoaceticos T59,100 µg/mL
same,MIC,A. faecalis ATCC3750,1.56 µg/mL
same,MIC,B. subtilis ATCC6633,0.2 µg/mL
same,MIC,C. freundii ATCC8090,0.78 µg/mL
same,MIC,E. cloacae ATCC13407,3.13 µg/mL
same,MIC,E. coli CSH2 (RE45),0.1 µg/mL
same,MIC,E. coli CSH2 (RK1),0.1 µg/mL
same,MIC,E. coli NIHJ JC-2,0.1 µg/mL
same,MIC,K. pneumoniae IFO3317,0.05 µg/mL
same,MIC,K. pneumoniae No. 42,0.39 µg/mL
same,MIC,M. Morganii IFO3848,0.1 µg/mL
same,MIC,M. luteus ATCC 9341,0.39 µg/mL
same,MIC,P. aeruginosa NCTC10490,> 100 µg/mL
same,MIC,P. mirabilis IFO3849,0.39 µg/mL
same,MIC,P. vulugaris OX-19,0.39 µg/mL
same,MIC,S. aureus 167,100 µg/mL
same,MIC,S. aureus 195,> 100 µg/mL
same,MIC,S. aureus 209p JC-1,0.39 µg/mL
same,MIC,S. aureus Smith,0.39 µg/mL
same,MIC,S. epidemidis IAM1296,0.2 µg/mL
same,MIC,S. marcescens IAM1184,1.56 µg/mL
